# Values of other authors, collected in publication PMC6547379 (The European respiratory journal, 2018).
# Test system: CF patients
# Conditions: ref [34]
smiles,measurement,value
Cc1c(-c2ccnn2C)cc(C(=O)NCc2ccc(S(C)(=O)=O)cn2)c(=O)n1-c1cccc(C(F)(F)F)c1 [AZD9668],effect on inflammation / lung function in CF patients,no effect on inflammation or lung function
